{
  "source": "patent US20130121930A1",
  "about": "“Use of Glyceryl Trinitrate for Treating Hematomas” (priority 2010, published 2013)",
  "system": "hematomas",
  "assay": "Topically applied GTN on hematomas, general finding compared to untreated hematoma",
  "assay_type": "in vivo",
  "description": "Instead of darkening of the skin, the healing occurs with a green, followed by a yellow, coloration of the affected skin area.",
  "key": {"[1]": {"conditions": "1.2 to 6 mg GTN on the day of injury, then daily 0.8 to 1.6 mg GTN, compared to an untreated hematoma"}},
  "data": [
    {"smiles": "O=[N+]([O-])OCC(CO[N+](=O)[O-])O[N+](=O)[O-]", "note": "[GTN, glyceryl trinitrate]", "values": [
      {"measurement": "typical darkening of the affected skin sites", "setting": "1.2 to 6 mg GTN on the day of injury, then daily 0.8 to 1.6 mg GTN", "value": "prevents the typical darkening"},
      {"measurement": "individual healing phases", "setting": "[1]", "value": "significantly shortened"},
      {"measurement": "overall healing period for the treated hematomas", "setting": "[1]", "value": "reduced by one-half"},
      {"measurement": "healing of hematomas", "setting": "topically applied", "value": "greatly accelerates"}
    ]}
  ]
}
